Results as given in the METLIN SMRT retention time set (Domingo-Almenara et al. 2019).

Test: gradient 5% acetonitrile 3 min, to 50% in 2 min, to 85% in 15 min, held 3 min, 100 µL/min
Details: column: Zorbax Extend-C18 2.1 x 50 mm; eluents: water / acetonitrile, 0.1% formic acid
In short: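 The system's dead and dwell volumes were 40 μL and 900 μL, with a Zorbax Extend-C18 column (2.1 × 50 mm, 1.8 μm) run at 100 μL/min in water and acetonitrile containing 0.1% formic acid each. Pure standards were analyzed in mixtures of ~100 molecules by HPLC–quadrupole time-of-flight mass spectrometry in positive and negative ionization mode. Retention time was assigned from computationally picked, manually inspected adduct peaks.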

| SMILES | RP-LC retention time |
| --- | --- |
| CCn1ccc(C(=O)NC2CCCC2)n1 | 709 s |
| COc1cccc(-c2cc3n(n2)CCCN(C(=O)COc2ccccc2)C3)c1 | 788 s |
| O=C(c1cccc(Br)c1)N1CCN(c2nnc3ccccn23)CC1 | 662 s |
| Cc1cc(N2CCOCC2)nc(N2CCOCC2)n1 | 624 s |
| COc1ccc(-c2nnc(N3CCC(C(=O)N4CCOCC4)CC3)o2)cc1 | 664 s |
| COc1cc(NC(=O)N2CCN(c3ccc(=O)n(-c4ccc(C)cc4)n3)CC2)cc(OC)c1OC | 749 s |
| COc1ccc(Cn2c(=O)c3sccc3n(Cc3nc(-c4cccc(OC)c4)no3)c2=O)cc1 | 962 s |
| Cc1ccc(NS(=O)(=O)c2cc3c(s2)CCN(C(=O)C2CC2)C3)cc1C | 861 s |
| CC(C)CNC(=O)CN1c2ccc(F)cc2-c2ccccc2S1(=O)=O | 920 s |
| COc1ccc(-c2nc(C)cc3nn(CC(=O)Nc4cccc(OC)c4)c(=O)n23)cc1 | 800 s |
| CNC(=O)c1sc(-c2ccc(C)cc2)nc1C | 785 s |
| CCn1nccc1-c1cccc(-c2noc(-c3ccccn3)n2)c1 | 897 s |
| Cc1ccc(NC(=O)C2CC(=O)N(c3n[nH]c4cccc(F)c34)C2)nc1 (centres undefined) | 606 s |
| COc1ccc(N2CC(c3nnc(NC(=O)c4ccccc4Br)o3)CC2=O)cc1 (centres undefined) | 703 s |
| Cc1ccc(Nc2nc(N)nc(CN3CCN(c4ccccn4)CC3)n2)cc1 | 590 s |
| O=C(COc1ccc(F)cc1)N1CCCC1c1nc(-c2ccc(F)cc2F)no1 (centres undefined) | 950 s |
| CC(C)n1cnnc1CC1CN(C(=O)Nc2cc(F)ccc2F)C1 | 631 s |
| CCC(=O)Nc1c(C)noc1/C=C\c1ccc(S(=O)(=O)N2CCN(c3ccccn3)CC2)cc1 | 646 s |
| Cc1ccc(C)c(Cn2nc3c(S(=O)(=O)N4CCc5ccccc5C4)cccn3c2=O)c1 | 1070 s |
| CSc1ncccc1C(=O)Nc1ccc2c(c1)CCC(=O)N2 | 638 s |
| O=C1COc2ccc(-c3csc(NC(=O)c4ccco4)n3)cc2N1 | 741 s |
| COc1ccc(-c2noc(C3CC(=O)N(c4ccc(C)c(Cl)c4)C3)n2)cc1 (centres undefined) | 1050 s |
| CCOc1ccc(-c2cc3c(=O)n(Cc4nc(-c5cccc(C)c5)no4)ncn3n2)cc1 | 1210 s |

| SMILES | RP-LC retention time |
| --- | --- |
| Cc1ccc(CNC(=O)C2CCCN(c3nc4c(s3)c(C)nn4-c3ccc(F)cc3)C2)o1 (centres undefined) | 1100 s |
| Cc1cc(C)c2c(n1)SCCN2C(=O)CCC(=O)NCc1ccccc1C | 700 s |
| CCCN1C(=O)c2ccccc2C(C(=O)NC2CCCCC2)C1c1cc(OC)c(OC)c(OC)c1 (centres undefined) | 838 s |
| Cc1ccc(CC(=O)N2CCN(c3cc(-c4ccc(C)cc4)ncn3)CC2)cc1 | 704 s |
| COc1ccc(-c2nc(-c3cn(Cc4ccc(F)cc4)nn3)no2)cc1OC | 914 s |
| CCN(CC)c1ccc(C2=NNC(=O)CC2C)cc1[N+](=O)[O-] (centres undefined) | 773 s |
| CCOC(=O)N1CCN(c2nc(Nc3ccc(OC)cc3)c3nccnc3n2)CC1 | 670 s |
| O=C(NC1CCCCCC1)C1CCCN(c2nccnc2Oc2ccccc2)C1 (centres undefined) | 1060 s |
| Cc1ccc(-c2noc(C3CCCN3C(=O)C3CC(=O)N(c4ccc(C)c(C)c4)C3)n2)cc1 (centres undefined) | 1050 s |
| Oc1ccc(-c2ccc(F)cc2)cc1CNC1CCCCC1 | 712 s |
| CN1C(=O)c2cc(C(=O)NCc3ccc(Cl)cc3)nn2CC1(C)C(=O)NC1CCCCC1 (centres undefined) | 850 s |
| CNC(=O)C1CC(=O)N(c2cccc(C)c2)C1 (centres undefined) | 637 s |
| O=C(NCc1ccc(F)cc1)N1CCCC1c1nc(-c2ccccc2)no1 (centres undefined) | 914 s |
| CCOc1ccc(-c2noc(CN3C(=O)COc4cc(C)ccc43)n2)cc1 | 1110 s |
| CC(C)c1ccc(-c2cc3c4nn(CC(=O)NC5CCCC5)c(=O)n4ccn3n2)cc1 | 983 s |
| O=C(NCc1cc(F)cc(F)c1)C1CCN(c2cncnc2N2CCCCC2)CC1 | 700 s |
| CC1CN(CCc2ccccc2)c2nc3c(c(=O)n(CCN4CCOCC4)c(=O)n3C)n2C1 (centres undefined) | 680 s |
| Cc1ccc(S(=O)(=O)N2CC=C(c3cn(C)c4ncccc34)CC2)cc1 | 990 s |
| CCn1c(=O)c2ccccc2n(Cc2nc(-c3cccc(Cl)c3)no2)c1=O | 1090 s |
| Cc1ccc(Cl)cc1N(C)C(=O)Cn1ccc2c(=O)n(C)c(=O)n(C)c21 | 738 s |
| CCc1ccc(NC(=O)N2C[C@@H](F)C[C@H]2C(=O)N2CCc3ccccc3C2)cc1 | 887 s |
| O=C(Cc1ccsc1)N1CCCn2nc(-c3ccc(Cl)cc3)cc2C1 | 931 s |
| CC(Nc1nc(N2CCCC2)nc2ccccc12)c1ccccc1 (centres undefined) | 781 s |

| SMILES | RP-LC retention time |
| --- | --- |
| Cc1ccc2nc(NC(=O)CSc3ccc(-n4cccn4)nn3)sc2c1 | 844 s |
| Cc1cccc(S(=O)(=O)N2CCCC(C)(C(=O)NCc3cccc(F)c3)C2)c1 (centres undefined) | 972 s |
| CCOc1coc(C(=O)Nc2cccc(F)c2)cc1=O | 695 s |
| O=C(CCC(=O)OCC(=O)c1ccccc1)Nc1ccc2ccccc2c1 | 891 s |
| COC(=O)CC1CN=C(Nc2nc(C)c3ccccc3n2)NC1=O (centres undefined) | 615 s |
| CCOc1ccc(S(=O)(=O)N2CCCC2c2nc(-c3ccc(Cl)cc3)no2)cc1 (centres undefined) | 1230 s |
| COc1ccccc1C(=O)NC1(C(F)(F)F)C(=O)N(CC2CCCO2)C(C)=C1C(C)=O (centres undefined) | 774 s |
| Cc1sc(NC(=O)c2ccccc2)nc1-c1ccc2c(c1)NC(=O)C(C)O2 (centres undefined) | 931 s |
| CCOC(=O)c1noc2ncnc(N3CCN(c4ccc(F)cc4)CC3)c12 | 1010 s |
| COc1cccc(C2=NN(C(C)=O)C(c3cccc(Br)c3)O2)c1OC(C)=O (centres undefined) | 1070 s |
| O=C(NC1CCCC1)N1c2ccccc2CC1c1noc(C2CCOCC2)n1 (centres undefined) | 854 s |
| O=C(CCn1c(N2CCCC2)nc2ccsc2c1=O)N1CCN(c2ccccc2F)CC1 | 849 s |
| O=C(NC1CCCCCC1)c1cccc(-c2nccnc2N2CCCC2)c1 | 1000 s |
| CCc1ccccc1NC(=O)C1CC(=O)N(c2ccc3c(c2)CCN3C(=O)C2CC2)C1 (centres undefined) | 780 s |
| O=C1CCN(S(=O)(=O)c2ccccc2)CCCN(C(=O)C2(c3ccccc3)CC2)CCN1 | 758 s |
| Cc1ccc(C)c(-c2csc(NC(=O)c3ccc(C)o3)n2)c1 | 1100 s |
| O=S(=O)(c1cc(F)cc(F)c1)N1CCC(c2noc(-c3cccc(F)c3)n2)CC1 | 1170 s |
| Cc1ccc(N2CCC(NC(=O)Nc3ccccc3Cl)C2=O)cc1C (centres undefined) | 909 s |
| Cc1ccc(S(=O)(=O)NCc2ccccn2)c(C)c1C | 626 s |
| CCOCCCNC(=O)c1c2c(cn(-c3ccccc3)c1=O)C(=O)CC(C)(C)C2 | 591 s |
| Cc1cccc(NS(=O)(=O)c2ccc3nnc(C)n3c2)c1 | 687 s |
| CCOCCCNC(=O)c1cc2sc(CC)cc2n1C | 960 s |
| Cc1c(CN2CCSCC2)nnn1-c1ccc(F)cc1 | 610 s |

| SMILES | RP-LC retention time |
| --- | --- |
| Cn1c(N2CCC(C(=O)NCc3ccccn3)CC2)cc(=O)n(C)c1=O | 566 s |
| Clc1ccccc1-c1noc(Cc2nnc(-c3cccc(Br)c3)o2)n1 | 1100 s |
| COc1ccccc1CNC(=O)Cn1nc(C)c2sc(-c3ccccc3)nc2c1=O | 884 s |
| O=C(Nc1ccc2nc(N3CCCN(c4ncccn4)CC3)cc(C(=O)O)c2c1)c1ccc(F)cc1 | 616 s |
| O=C(NC1CC1)c1ccc(N2CCC(NCc3ccc(C(F)(F)F)cc3)C2)nc1 (centres undefined) | 663 s |
| CCCCN1CCN(C(=O)c2ccc3c(c2)nc2n3CCN(C3CCCCC3)C2=O)CC1 | 618 s |
| CNc1nccc(N2CCC(CC(=O)N3CCCCCC3)CC2)n1 | 539 s |
| COC1C(=O)N(CC2CC2)C12CCN(C(=O)C1CCOCC1)CC2 (centres undefined) | 638 s |
| CN1C(=O)[C@H]2CN(Cc3ccc(N(C)C)cc3)C[C@H]2C1=O | 525 s |
| Cc1cc2c(cc1C(=O)NCCc1c[nH]c3ccccc13)OCCCO2 | 824 s |
| CCCN1C(=O)COc2ccc(-c3noc(/C=C/c4ccc(OC)cc4)n3)cc21 | 1190 s |
| CCn1nnc2cc(-c3noc(CNC(=O)Cc4ccc(Cl)cc4)n3)ccc21 | 816 s |
| O=C(Nc1cc(C(F)(F)F)cc(C(F)(F)F)c1)c1ccc(=O)[nH]n1 | 814 s |
| CCOC(=O)CNC(=O)NC(C)C(=O)N1CCc2ccccc21 (centres undefined) | 687 s |
| O=C(Nc1cccc(OCc2nnc(-c3ccccc3)o2)c1)c1cnccn1 | 825 s |
| CC(C)Cc1noc(C2(F)CCN(S(=O)(=O)c3ccccc3Cl)CC2)n1 | 674 s |
| Cc1cccc(NC(=O)N2CCC(c3nc(C(=O)N(C)C)c(C)o3)CC2)c1C | 697 s |
| O=C(NCCCN1CCCCC1)C1CCN(c2cncnc2N2CCCCC2)CC1 | 569 s |
| CCC(C)NC(=O)C1CCN(S(=O)(=O)c2c(C)nn(CC(=O)Nc3ccc(C)cc3)c2C)CC1 (centres undefined) | 806 s |
| O=C(Nc1ccc(F)cc1)N1CC2CN(S(=O)(=O)c3ccccc3)CC(C1)O2 | 752 s |
